Measurements: patent publication US10508088B2, “Methods using HDAC11 inhibitors” (FORMA Therapeutics, Inc., priority 2016, dated 2019)

Experiments:
[1] = molecular target: Full length human recombinant HDAC11 (Homo sapiens (Human), UniProt Q96DB2); assay: Enzymatic HDAC11 assay, electrophoretic mobility shift; assay type: biochemical; details: substrate FAM-RHKK(tri-fluor-Ac)-NH2, read-out: HDAC11 IC50 Range
Method in brief: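 Baculovirus-expressed enzyme (10 nM) with 2 μM FAM-RHKK(tri-fluor-Ac)-NH2 in 100 mM HEPES pH 7.5, 25 mM KCl, 0.1% BSA, 0.01% Triton X-100, 1% DMSO at 25 °C. Substrate and product separated by microfluidic electrophoresis; inhibition from product/(substrate+product) ratio. IC50 by 4-parameter fit over 12 concentrations.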

SET-2 cells = assay: Cell proliferation assay (CCK8); assay type: cell-based; details: Ruxolitinib-resistant SET-2
Procedure: (§1) This example describes inhibition of in vitro cell proliferation with exemplary HDAC11 inhibitors. The effects of selective HDAC11 inhibitors on cell proliferation were measured in cell lines containing the MPN-associated mutations MPL W515L (Ba/F3 MPL W515L) and JAK2 V617F (Ba/F3 JAK2 V617F, HEL 92.1.7, SET-2). HEL 92.1.7 and SET-2 cells were purchased from the ATCC and DSMZ, respectively. Ba/F3 cells overexpressing either MPLW515L or JAK2V617F, which were cytokine independent, were generated by transforming Ba/F3 cells with retroviruses overexpressing either MPL W515L or JAK2V617F. For survival assays, cells were seeded in 96-well plates at the density of 0.1 million/ml with addition of indicated compounds and incubated at 37° C. for 48 h. CCK8 solution (Dojindo, Rockville, Md.) was added and absorbance at 450 nm was measured after 3 hours of incubation. Readings were normalized to dimethylsulfoxide (DMSO)-treated wells.

HEL 92.1.7 cells = assay: Cell proliferation assay (CCK8); assay type: cell-based; details: HEL 92.1.7, 48 h
Procedure: as §1

[2] = system: myeloid cells from MPN patients; assay: Colony formation assay from MPN patient samples; assay type: cell-based, human; details: MPN patient samples (ET; PV Ruxolitinib resistant), scored 12 to 14 days
Procedure: (§2) To determine the effects of selective HDAC11 inhibition on MPN patient samples, the effects of HDAC11 inhibitors were evaluated in a colony formation assay with erythroid or myeloid cells from MPN patients. Peripheral blood was obtained from MPN patients consented through the Moffitt Cancer Center Total Cancer Care protocol (MCC 14690). Blood was treated with HetaSep™ (STEMCELL Technologies, Inc.) to remove the majority of red blood cells. Peripheral blood mononuclear cells (PBMCs) were isolated by ficoll separation. PBMCs (1-4×105) were then plated in 1 mL of methylcellulose medium containing rhSCF, rhIL-3, and granulocyte-macrophage colony-stimulating factor (rhGM-CSF) (MethoCult™ #H4534; STEMCELL Technologies, Inc.). All drug treated samples contained 0.1% DMSO as the final concentration. Cells were incubated at 37° C. and 5% CO2 in a humidified incubator. Colonies were scored 12 to 14 days after plating.

[3] = system: erythroid cells from MPN patients; assay: Colony formation assay from MPN patient samples; assay type: cell-based, human; details: MPN patient samples (ET; PV Ruxolitinib resistant), scored 12 to 14 days
Procedure: as §2

[4] = system: STAT5 phosphorylation in HEL 92.1.7 cells; assay: STAT3 and STAT5 phosphorylation western blot assay; assay type: cell-based; details: HEL 92.1.7, western blot
Procedure: (§3) The effects of selective HDAC11 inhibition on STAT3 and […] phosphorylation in HEL 92.1.7 cells were determined by western blot. Cells were treated with HDAC11 inhibitors and lysed in RIPA buffer (Sigma-Aldrich, St. Louis, Mo.) supplemented with protease inhibitors (Roche, Basel, Switzerland) and phosphatase inhibitors (Sigma P5726). Protein concentrations were determined with Pierce BCA protein assay kit (Thermo Fisher Scientific, Waltham, Mass.). Proteins were separated on a 4-12% Bis-Tris gradient electrophoresis gel (Life Technologies, Carlsbad, Calif.) and transferred onto a nitrocellulose membrane. The membrane was then blocked in either 5% nonfat dry milk or 5% BSA followed by incubation with primary antibodies at 4° C. overnight. Antibodies for p-STAT5 (Abcam 32364), STAT5 (Cell Signaling 9358), p-STAT3 (Cell Signaling 9145) and STAT3 (Cell Signaling 9139) were used. β-actin was used as loading control.

[5] = system: STAT3 phosphorylation in HEL 92.1.7 cells; assay: STAT3 and STAT5 phosphorylation western blot assay; assay type: cell-based; details: HEL 92.1.7, western blot
Procedure: as §3

Chain of Full length human recombinant HDAC11 (Q96DB2 whole entry): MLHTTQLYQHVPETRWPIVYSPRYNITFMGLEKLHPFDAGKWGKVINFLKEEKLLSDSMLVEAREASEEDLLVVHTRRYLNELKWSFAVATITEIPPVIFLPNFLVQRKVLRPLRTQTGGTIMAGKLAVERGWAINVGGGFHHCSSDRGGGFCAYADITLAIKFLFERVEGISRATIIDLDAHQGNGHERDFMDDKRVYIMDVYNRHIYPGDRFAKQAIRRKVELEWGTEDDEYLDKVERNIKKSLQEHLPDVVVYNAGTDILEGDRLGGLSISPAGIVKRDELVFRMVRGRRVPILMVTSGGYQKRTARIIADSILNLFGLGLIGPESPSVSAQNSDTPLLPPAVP

Compound	IC50 [1] [nM]	growth of SET-2 cell line generated to be Ruxolitinib-resistant (SET-2 cells)	growth of the HEL 92.1.7 cell line (HEL 92.1.7 cells)	growth of colonies from myeloid cells [2]	growth of colonies from erythroid cells [3]	STAT5 phosphorylation [4]	STAT3 phosphorylation [5]
O=C(NO)c1cccc2c1C[C@]1(CCN(Cc3ccc(Cl)c(C(F)(F)F)c3)C1=O)C2 [HDTK054, (S)-1′-(4-chloro-3-(trifluoromethyl)benzyl)-N-hydroxy-2′-oxo-1,3-dihydrospiro[indene-2,3′-pyrrolidine]-4-carboxamide]	< 500	–	–	–	–	–	–
O=C(NO)c1cccc(Nc2nc3cc(Cl)c(Cl)cc3o2)c1 [HDTK010, 3-((5,6-dichlorobenzo[d]oxazol-2-yl)amino)-N-hydroxybenzamide]	–	inhibited the growth	inhibited the growth	reduced the growth of colonies	reduced the growth of colonies	inhibited	inhibited
